Marks after values point to notes of the source that are not given here. Bridge positions count the residues as written; N and C are the ends. Square brackets hold non-standard residues; d marks the D form. Peptide text beside a SMILES is read from it. dDab = NCC[C@@H](N)C(=O)O
Tests used:
[1] = test system: all five somatostatin receptor subtypes; conditions: cited from earlier work
[2] = cited from earlier work
[3] = test system: prostate of intact 28 day old male mice; assay: PQ401 or SS14 treatment of intact 28 day old male mice: prostate; type: in vivo
Description: To examine further the effect of various compounds on glandular and fibromuscular development of the prostate, somatostatin-14 (SS14, a native somatostatin) and an exemplary small molecule IGF-I receptor inhibitor PQ401 were assessed in a variety of animal models.
In a first experimental approach, the effect of treatment of intact 28 day old male mice with vehicle or PQ401 (a small molecule IGF-I receptor specific inhibitor) or somatostatin-14 (SS14; a native somatostatin) was evaluated. PQ401 and SS14 inhibit IGF-I action. For these experiments, N=5 mice per group. The results of these experiments are presented below in Tables 7-10: […]

IGF-IR signaling = conditions: chemical library screen; cited from earlier work
[4] = test system: prostate of castrated IGF-I^(−/−) null male mice; assay: Morphometry of histological prostate sections, castrated IGF-I(-/-) null male mice treated 7 days; type: in vivo
Description: Groups of castrated IGF-I^(−/−) null male mice were treated with either vehicle, testosterone in silastic capsules, des(1-3) IGF-I by an infusion through an Alzet pump containing 20 μg per pump, or the combination of testosterone and IGF-I for a period of 7 days.
In order to determine which specific structure was affected by which hormone, entire urogenital complexes were embedded in paraffin blocks, including the prostate glands, coagulating glands, seminal vesicles, urethra, urinary bladder attached to parts of the ureter, vas deferens, and ampullary glands. These were carefully sectioned such that the areas of prostate development could be analyzed.
The prostates were then removed, fixed and examined histologically. Morphometric analysis was carried on 30 cross sections of the prostate taken from five different serial sections. Changes in the area of the lumen, epithelial layer and fibromuscular layer were determined. These counts were performed using a Provis ×70 microscope (Olympus) attached to an Olympus DP10 digital camera. Images were taken using a 20× apochromate objective and were captured digitally at a resolution of 386 pixels. Data were tested for statistical significance using the SPSS statistical computer program (SPSS, Inc., Chicago, Ill.). Since assumptions for a parametric test were not valid (Kolmogorov-Sminov p<0.05), all data were evaluated by Kruskall-Wallis analysis of variance and the Mann-Whitney U test as a multiple comparison method.

IGF-I receptor = IGF-I receptor immunopositive cells in prostate elements; type: in vivo
[5] = test system: prostate of castrated IGF-I^(−/−) male mice; assay: Prostate glandular tree development, castrated IGF-I(-/-) male mice treated 28 days; type: in vivo; conditions: 28 days treatment
Description: These include transgenic mice overexpressing a GH antagonist (that binds to and inactivates GH receptors making the animals functionally deficient in GH), growth hormone releasing factor receptor (GHRH-R^−/−) knockout mice (Lit/Lit), and Ames (df/df) mice (Prop 1 Deficiency). Deficient prostate development in GH inhibitor overexpression animals was previously reported (see Ruan et al, Endocrinology 140:1984-1989, 1999). Analysis of development was determined by dissecting away the periprostatic fat and teasing the glandular structures from the connective tissue in a solution containing collagenase so that the entire glandular tree could be photographed for later structural analysis. Much the same as in the mice overexpressing the mutant growth hormone, the other GH deficient mice had significant impairment of prostate development (p<0.0002) including a reduction in the number of terminal duct tips (TDTs), the area of the prostate gland, the number of quaternary branches and the number of branch points (TABLE 3). Any differences in these GH deficient mice may in part be due to the fact that the different strains were not analyzed at exactly the same age (Lit/Lit 50 days old, Ames 47 days old and bGH transgenic 44 days of age). The n was also different which may have led to greater significance in the Lit/Lit mice.
To clearly differentiate between the effects of IGF-I and T on development of the prostate gland, hormone replacement experiments were conducted on IGF-I^(−/−) male mice that had been castrated. In addition to evaluating the effect of IGF-I and T on gland structure development described above, we also evaluated the relative effects of these hormones on development of the stromal compartment of the prostate and also on histology of the glandular compartment. This was accomplished by sectioning and staining the prostate to highlight aspects of development.
Castrated IGF-I^(−/−) male mice were treated with T (administered by silastic capsules embedded on the backs of animals, subcutaneously). Des (1-3) IGF-I (40 μg/pump) was also implanted subcutaneously.

[6] = test system: prostate of IGF-I^(−/−) null male mice; assay: Restoration of prostate development in IGF-I(-/-) null male mice; type: in vivo
Text: That IGF-I was also found to be essential for full prostate development was shown in a series of experiments employing IGF-I^(−/−) null male mice.

[7] = test system: probasin in epithelial cells of the prostate; assay: Probasin immunostaining of prostate sections (FIG. 6); type: in vivo, mice; conditions: FIG. 6(i-l)
Description: FIG. 6 depicts the effect of IGF-1 and/or T on histological appearance of prostate glands during development. Sections are shown through prostate glands from control animals (a, e, i) and animals treated with T alone (b, f, j), IGF-I alone (c, g, k), and IGF-I plus T (d, h, i). […] (i-1) Probasin immunostaining, brown color in the epithelial cells of the prostate. Magnification ×400.
The relative effects of IGF-I and T on prostate development were also studied in histological sections of whole prostate. This allowed determination of such effects on glandular microstructure and the stromal compartment of the prostate.
FIG. 6 depicts sections through prostate glands from control animals (FIG. 6(a, e, i)), animals treated with T alone (FIG. 6(b, f, j)), IGF-I alone (FIG. 6(c, g, k)), and IGF-I plus T (FIG. 6(d, h, i)).

[8] = castrated IGF-I knockout male mice, 7 days treatment
[9] = castrated at 56 days, hormones for 7 days (Table 5)

Which “affinity for all five somatostatin receptor subtypes” value [1] does the source give for C[C@@H](O)[C@@H]1NC(=O)[C@H](CCCCN)NC(=O)[C@@H](Cc2c[nH]c3ccccc23)NC(=O)[C@H](Cc2ccccc2)NC(=O)[C@H](Cc2ccccc2)NC(=O)[C@H](CCCNC(=N)N)NC(=O)[C@H](NC(=O)[C@@H](N)Cc2ccc(O)cc2)CCNC(=O)[C@H](Cc2ccccc2)NC1=O [KE108] (H-Y[dDab]RFF[dW]KTF; lactam 2-C) here?
The value was “extremely high affinity”.

And the “stability in human serum” value [2]?
The value was “stable for several hours”.

For COc1ccc(Cl)cc1NC(=O)Nc1cc(C)nc2ccccc12 [PQ401], which “area of the Longitudinal muscle” value ([3]; 28 day old male mice, controls 0.939) is on record?
Its value is 0.868 mm^2.

What about the “total area of the Circular muscle” value ([3]; 28 day old male mice, controls 1.322) of the same compound?
Its value is 0.789 mm^2.

What about the “% Reduction of prostate weight” value ([3]; intact 28 day old male mice, vs 28 day control) of the same compound?
The value was 31%.

What about the prostate weight ([3]; intact 28 day old male mice, control 26.8 ± 1.0, p < 0.0001) of the same compound?
Its prostate weight is 18.4 ± 0.5 mg.

What about the “inhibition of IGF-IR signaling” value (IGF-IR signaling) of the same compound?
The value was “potent inhibitor”.

Which results are given for C[C@]12CC[C@H]3[C@@H](CCC4=CC(=O)CC[C@@]43C)[C@@H]1CC[C@@H]2O [TESTOSTERONE, testosterone]?
Area of prostatic component (mean values): Eptithelium [4, 8]: Eptithelium = 84,551.64 μm^2; Area of prostatic component (mean values): Lumen [4, 8]: Lumen = 369,495.45 μm^2; Area of prostatic component (mean values): Stroma (connective-muscle) [4, 8]: Stroma (connective-muscle) = 89,797.254 μm^2; Area of prostatic components (mean values): Total [4, 8]: Total = 543,844.34 μm^2; Percentage of area: Eptithelium [4, 8]: 15%; Percentage of area: Lumen [4, 8]: 69%; Percentage of area: Stroma (connective-muscle) [4, 8]: 16%; Mean area of prostatic component: Epithelium [4, 9]: 84 × 10^3 μm^2; Mean area of prostatic component: Fibromuscular tissue [4, 9]: 89 × 10^3 μm^2; Mean area of prostatic component: Lumen [4, 9]: 369 × 10^3 μm^2; Mean section size [4, 9]: 543 × 10^3a μm^2; percentage occupied: Epithelium [4, 9]: (15%)^a; percentage occupied: Fibromuscular tissue [4, 9]: (16%)^b; percentage occupied: Lumen [4, 9]: (69%)^a; % IGF-I receptor immunopositive cells, epithelium (IGF-I receptor; prostate epithelium): 0%; % IGF-I receptor immunopositive cells, fibromuscular (IGF-I receptor; prostate fibromuscular elements): 95 ± 0.4%; 4°- branching, ventral prostate [5]: 8.0 ± 0.6 ^a; Area, dorsal prostate [5]: 0.15 ± 0.01 ^a cm^2; Area, ventral prostate [5]: 0.16 ± 0.01 ^a cm^2; Branch Points, ventral prostate [5]: 12.0 ± 1.2 ^; Terminal Duct Tips, dorsal prostate [5]: 17.0 ± 1.2 ^a; Terminal Duct Tips, ventral prostate [5]: 16.3 ± 1.2 ^; Width of TDTs, dorsal prostate [5]: 0.227 ± 0.003 ^b mm; Width of TDTs, ventral prostate [5]: 0.236 ± 0.003 ^b mm; restoring impaired prostate development [6]: partially but significantly restored; probasin immunostaining in the epithelial cells of the prostate [7]: scattered number of probasin immunopositive epithelial cells

Source: patent US9579364B2, “Methods for treating benign prostatic hypertrophy (BPH)” (New York University, priority 2002, dated 2017)
